Data from US20220135678A1, “METHODS AND COMPOSITIONS TO IMPROVE THE SAFETY AND EFFICACY OF CELLULAR THERAPIES” (University of Southern California, priority 2019, published 2022).

Key:
[1] = system: CD19 on RAJI (CD19+) cells; experiment: CD19 surface expression on transduced RAJI cells, flow cytometry with PE-conjugated FMC63 antibody (antigen masking); assay type: cell-based
Source text: A panel of CARs targeting CD19 were generated using antigen binding domains derived from FMC63 (SEQ ID NO: 205), hu-mROO5-1 (SEQ ID NO: 211) and CD19-MM (SEQ ID NO: 209) scFVs respectively. […] The constructs also co-expressed a puromycin resistance gene (PAC). The lentiviral vectors encoding the different CAR constructs were used to infect RAJI (CD19+) cells. The cells were selected with puromycin. Flow cytometry with PE-conjugated FMC63 antibody was used to detect the expression of CD19 on the surface of the CAR-expressing cells.
In another exemplary experiment, the experiment is repeated with lentiviral vectors encoding FMC63- or hum-mROO5-1-based cTCR, Ab-TCR, TFPαβ and TFPγδ.
RAJI cells were infected with the following lentiviral vectors encoding antigen masking receptors targeting CD19 and carrying protein degradation motifs FKBP12. […] RAJI cells were selected with puromycin and examined for CD19 expression by cell surface staining with FMC63 antibody. […] Subsequently, the cells were treated with dTAG-13 (100 nM) for 24-72 h to induce degradation of the AMR.

RAJI cells = experiment: Killing of AMR-expressing RAJI cells by CD19-CAR-T cells or Blinatumomab; assay type: cell-based; settings: exposure to dTAG-13
Experimental: T cells mediated induction of lysis of target cells was assayed by increase of luciferase activity as measured by BioTek synergy plate reader by directly injecting 0.5×CTZ assay buffer containing native coeloentrazine (Nanaolight).

[2] = system: CD33 on hematopoietic stem cells and progenitor cells; experiment: HSPC expressing AMR-dTAG or AMR-ShieldTag targeting CD33, in vitro; assay type: cell-based
[3] = system: Molm14 AML leukemia cells; experiment: AMR-dTAG or AMR-ShieldTag HSPC transplanted into NSG mice with Molm14 cells, CD33 CAR-T; assay type: in vivo
Source text: (§1) The transduced cells are also transplanted into NSG mice along with Molm14 AML leukemia cells.
as §1

[4] = system: NALM6 (B cell acute lymphocytic leukemia cells); experiment: Infection of NALM6 cells by lentivirus encoding a non-FMC63 CD19 CAR; assay type: cell-based; settings: CAR scFV derived from an antibody other than FMC63
Experimental: The experiment in the preceding example is repeated using a lentiviral vector encoding a CD19 CAR (SEQ ID NO: 11920) comprising a scFV derived from an antibody other than FMC63 as its antigen-binding domain. The CAR is cloned in the pCCLc-MNDU3-WPRE lentiviral vector (SEQ ID NO: 3) and the resulting vector is packaged using VSVG as described in the preceding example. […] In contrast, incubation with Rituximab, a CD20 antibody, had no effect.

[5] = Patient with cytokine release syndrome and neurological complications after haploidentical stem cell transplant; assay type: in vivo, human
Experimental: A patient with myelofibroris receives haploidentical peripheral blood stem cell transplant using their child as a donor. The patient receives reduced intensity conditioning with Melphalan (100 mg/m2 on day −6), Fludarabine (25 mg/m2×4 on days −5 to −2) and total body irradiation (TBI) of 200 cGy on day −1. Following infusion of haploidentical stem cells on Day 0, the patient receives post-transplant Cyclophosphamide 50 mg/kg×2 on days+3 and +4 and intravenous hydration with normal saline at rate of 250 ml/h for 24 hours after the completion of cyclophosphamide.

CD19 (on RAJI cells) [6] = molecular target: CD19 (on RAJI cells) (UniProt P15391); experiment: cell surface staining of control RAJI cells with FMC63 antibody, flow cytometry
CD19 (on RAJI cells) [7] = molecular target: CD19 (on RAJI cells) (UniProt P15391); experiment: cell-based or functional assay

Sequence of UniProt P15391 (P15391 20-556 limits assumed): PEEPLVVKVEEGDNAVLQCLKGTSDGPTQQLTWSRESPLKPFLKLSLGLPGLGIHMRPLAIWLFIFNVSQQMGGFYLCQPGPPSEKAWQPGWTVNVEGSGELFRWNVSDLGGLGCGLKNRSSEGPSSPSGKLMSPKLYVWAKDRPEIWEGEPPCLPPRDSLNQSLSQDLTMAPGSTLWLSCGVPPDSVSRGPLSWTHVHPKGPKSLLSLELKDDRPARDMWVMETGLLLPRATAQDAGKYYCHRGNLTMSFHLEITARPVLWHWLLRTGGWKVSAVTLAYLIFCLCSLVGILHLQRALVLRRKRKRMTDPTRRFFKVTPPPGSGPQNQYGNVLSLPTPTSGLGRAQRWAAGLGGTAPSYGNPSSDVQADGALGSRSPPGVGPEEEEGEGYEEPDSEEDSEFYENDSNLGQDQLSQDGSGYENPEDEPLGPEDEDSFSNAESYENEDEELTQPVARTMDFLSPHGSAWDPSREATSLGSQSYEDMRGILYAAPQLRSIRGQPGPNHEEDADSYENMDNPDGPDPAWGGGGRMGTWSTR

For `CC[C@H](C(=O)N1CCCC[C@H]1C(=O)O[C@H](CCc1ccc(OC)c(OC)c1)c1ccccc1OCC(=O)NCCCCCCOc1cccc2c1C(=O)N(C1CCC(=O)NC1=O)C2=O)c1cc(OC)c(OC)c(OC)c1` (some centres unmarked) [dTAG-13], which “induction of CD19 expression with increasing concentration” value ([1]; 1 pM to 100 nM) is on record?
The value was “dose dependent induction”.

And the “CD19 expression on AMR-expressing RAJI cells after ligand” value ([1]; 100 nM for 24-72 h, FMC63-PE staining, before treatment […])?
The value was 68.98%.

And the “killing of AMR-expressing RAJI cells by CD19-CAR-T cells or Blinatumomab upon exposure to ligand” value (RAJI cells)?
Its value is “sensitized”.

And the “AMR fusion protein after ligand treatment in vitro” value ([2]; 100 nM)?
Its value is “degradation of AMR fusion protein”.

What about the “AMR-dTAG fusion protein in animals after ligand” value ([3]; 25 mg/kg daily) of the same compound?
Its value is “degradation of the AMR-dTAG fusion protein”.

With `CC[C@H](C(=O)N1CCCC[C@H]1C(=O)O[C@H](CCc1ccc(OC)c(OC)c1)c1cccc(OCCN2CCOCC2)c1)c1cc(OC)c(OC)c(OC)c1` [Shield-1] as the compound, how does the “AMR fusion protein after ligand treatment is stopped, in vitro” value ([2]; Shield-1 treatment stopped) read?
Its value is “degradation of AMR fusion protein”.

And the “CD33 AMR-ShieldTag fusion protein in animals after ligand treatment is stopped” value ([3]; Shield-1 treatment stopped)?
Its value is “degradation of the CD33 AMR-ShieldTag fusion protein”.

With Rituximab: a CD20 antibody as the compound, how does the “infection of NALM6 by the CD19 CAR (SEQ ID NO: 11920)” value [4] read?
Its value is “no effect”.

Which blood pressure ([5]; 600 mg i.v. on day 5 after transplantation, patient with CRS after haploidentical stem cell transplant) does the source give for “Tocilizumab: administered 600 mg i.v. for cytokine release syndrome” here?
The blood pressure was “stabilization of blood pressure”.

What about the “neurological / mental status” value ([5]; after Tocilizumab 600 mg i.v. on day 5 after transplantation) of the same compound?
The value was “continues to have neurological deterioration”.

With FMC63-PE mouse monoclonal antibody as the compound, how does the % of control RAJI cells stained for CD19 by FMC63 antibody (CD19 (on RAJI cells) [6]) read?
The % of control RAJI cells stained for CD19 by FMC63 antibody was 99.2%.

Which results are given for isotype control mouse IgG (antibody)?
% EGFP + RAJI Cells (infection with CD19 CAR lentivirus after incubation with Control IgG-PE) (CD19 (on RAJI cells) [7]): 29.6%; % EGFP + RAJI Cells (infection with CD19 CAR lentivirus after incubation with control IgG) (CD19 (on RAJI cells) [7]): 43.3%; % EGFP + RAJI Cells (infection with the negative control MSLN-237-HL mesothelin CAR lentivirus after incubation with Control IgG-PE) (CD19 (on RAJI cells) [7]): 20.4%
